# From PubChem BioAssay AID256 (DTP/NCI, 2004)
# Values joined by “and” are separate entries in the source; they are usually repeats but may differ in a detail not shown here. Identical values can stand only once. Toxic doses and inconclusive results are not listed.
# Tested on: CD2F1 mice, L1210 leukemia ip, survival T/C
# Test: NCI In Vivo Anticancer Drug Screen. Data for tumor model L1210 Leukemia (intraperitoneal) in CD2F1 (CDF1) mice
# Settings: higher = longer survival
# How it was run: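 Transplantable tumor in mice; compound-treated vs vehicle-treated groups. Read-out = treated/control ratio of the measured endpoint.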
# [1] = endpoint: mean survival time, dose: 100.0 mg/kg/injection, schedule: Q04DX003 (ip), vehicle: saline with Tween-80
# [2] = endpoint: mean survival time, dose: 200.0 mg/kg/injection, schedule: Q04DX003 (ip), vehicle: saline with Tween-80
# [3] = endpoint: mean survival time, dose: 400.0 mg/kg/injection, schedule: Q04DX003 (ip), vehicle: saline with Tween-80
# [4] = endpoint: mean survival time, dose: 100.0 mg/kg/injection, schedule: Q01DX009 (ip), vehicle: saline with Tween-80
# [5] = endpoint: mean survival time, dose: 200.0 mg/kg/injection, schedule: Q01DX009 (ip), vehicle: saline with Tween-80
# [6] = endpoint: mean survival time, dose: 400.0 mg/kg/injection, schedule: Q01DX009 (ip), vehicle: saline with Tween-80
# [7] = endpoint: mean survival time, dose: 50.0 mg/kg/injection, schedule: Q01DX009 (ip), vehicle: saline with Tween-80
# [8] = endpoint: mean survival time, dose: 25.0 mg/kg/injection, schedule: Q01DX009 (ip), vehicle: water
# [9] = endpoint: mean survival time, dose: 50.0 mg/kg/injection, schedule: Q01DX009 (ip), vehicle: water
# [10] = endpoint: mean survival time, dose: 100.0 mg/kg/injection, schedule: Q01DX009 (ip), vehicle: water
# [11] = endpoint: mean survival time, dose: 200.0 mg/kg/injection, schedule: Q01DX009 (ip), vehicle: water
smiles,measurement,setting,value
CC(=O)NC(C=O)OCC=O (configuration not stated),T/C,"endpoint: median survival time, dose: 6.0 mg/kg/injection, schedule: Q01DX009 (ip), vehicle: water",100 % of control
same,T/C,"endpoint: median survival time, dose: 6.25 mg/kg/injection, schedule: Q01DX009 (ip), vehicle: water",105 % of control
same,T/C,"endpoint: median survival time, dose: 12.0 mg/kg/injection, schedule: Q01DX009 (ip), vehicle: water",103 % of control
same,T/C,"endpoint: median survival time, dose: 12.5 mg/kg/injection, schedule: Q01DX009 (ip), vehicle: water",105 % of control
same,T/C,"endpoint: median survival time, dose: 25.0 mg/kg/injection, schedule: Q01DX009 (ip), vehicle: water",105 % of control and 108 % of control
same,T/C,"endpoint: median survival time, dose: 50.0 mg/kg/injection, schedule: Q01DX009 (ip), vehicle: water",102 % of control and 108 % of control
same,T/C,"endpoint: median survival time, dose: 100.0 mg/kg/injection, schedule: Q01DX009 (ip), vehicle: water",116 % of control and 111 % of control
same,T/C,"endpoint: median survival time, dose: 200.0 mg/kg/injection, schedule: Q01DX009 (ip), vehicle: water",115 % of control and 108 % of control
CC(=O)Nc1ccc(S(=O)(=O)OCCCl)cc1,T/C,[1],96 % of control
same,T/C,[2],110 % of control
same,T/C,[3],102 % of control
O/N=C1/CCCc2ccccc21,T/C,[4],98 % of control
same,T/C,[1],100 % of control
same,T/C,[5],101 % of control
same,T/C,[2],97 % of control
same,T/C,[6],104 % of control
same,T/C,[3],100 % of control
Cc1cn(C2CC(O)C(COC(N)=O)O2)c(=O)[nH]c1=O (configuration not stated),T/C,"endpoint: mean survival time, dose: 100.0 mg/kg/injection, schedule: Q01DX001 (ip), vehicle: Klucel (hydroxypropylcellulose) (HPC)",116 % of control
same,T/C,"endpoint: mean survival time, dose: 200.0 mg/kg/injection, schedule: Q01DX001 (ip), vehicle: Klucel (hydroxypropylcellulose) (HPC)",92 % of control
same,T/C,"endpoint: mean survival time, dose: 400.0 mg/kg/injection, schedule: Q01DX001 (ip), vehicle: Klucel (hydroxypropylcellulose) (HPC)",104 % of control
CC(=O)Nc1ccc(C#[N+][S-])cc1,T/C,"endpoint: mean survival time, dose: 3.13 mg/kg/injection, schedule: Q01DX001 (ip), vehicle: Klucel (hydroxypropylcellulose) (HPC)",104 % of control
same,T/C,"endpoint: mean survival time, dose: 6.25 mg/kg/injection, schedule: Q01DX001 (ip), vehicle: Klucel (hydroxypropylcellulose) (HPC)",97 % of control
same,T/C,"endpoint: mean survival time, dose: 12.5 mg/kg/injection, schedule: Q01DX001 (ip), vehicle: Klucel (hydroxypropylcellulose) (HPC)",93 % of control
CC1(C)CC(=O)C2(C)C(C1O)C2C1C2C(O)C(C)(C)CC(=O)C21C (configuration not stated),T/C,"endpoint: mean survival time, dose: 75.0 mg/kg/injection, schedule: Q01DX001 (ip), vehicle: other",96 % of control
same,T/C,"endpoint: mean survival time, dose: 150.0 mg/kg/injection, schedule: Q01DX001 (ip), vehicle: other",94 % of control
same,T/C,"endpoint: mean survival time, dose: 300.0 mg/kg/injection, schedule: Q01DX001 (ip), vehicle: other",91 % of control
CC(C)=C/C(C)=C(/C#N)C(=O)OC(C)C,T/C,"endpoint: mean survival time, dose: 75.0 mg/kg/injection, schedule: Q01DX001 (ip), vehicle: saline",97 % of control
same,T/C,"endpoint: mean survival time, dose: 150.0 mg/kg/injection, schedule: Q01DX001 (ip), vehicle: saline",97 % of control
CCC1(c2ccc(O)cc2)C(=O)NC(=O)NC1=O,T/C,"endpoint: mean survival time, dose: 100.0 mg/kg/injection, schedule: Q01DX001 (ip), vehicle: saline",96 % of control
same,T/C,"endpoint: mean survival time, dose: 200.0 mg/kg/injection, schedule: Q01DX001 (ip), vehicle: saline",89 % of control
same,T/C,"endpoint: mean survival time, dose: 400.0 mg/kg/injection, schedule: Q01DX001 (ip), vehicle: saline",96 % of control
CC(=O)N/N=C\C1=CCC=C(Br)S1,T/C,[7],107 % of control
same,T/C,"endpoint: mean survival time, dose: 100.0 mg/kg/injection, schedule: Q01DX001 (ip), vehicle: saline with Tween-80",93 % of control
same,T/C,[4],107 % of control
same,T/C,"endpoint: mean survival time, dose: 200.0 mg/kg/injection, schedule: Q01DX001 (ip), vehicle: saline with Tween-80",102 % of control
same,T/C,[5],116 % of control
Cc1cc2nc(-c3ccccc3)c(-c3ccccc3)nc2cc1C,T/C,[4],92 % of control
same,T/C,[1],94 % of control
same,T/C,[5],92 % of control
same,T/C,[2],91 % of control
same,T/C,[6],93 % of control
same,T/C,[3],95 % of control
CC(CN1CC(=O)NC(=O)C1)N1CC(=O)NC(=O)C1 (configuration not stated),T/C,"endpoint: mean survival time, dose: 4.0 mg/kg/injection, schedule: Q01DX009 (ip), vehicle: saline",112 % of control
same,T/C,"endpoint: mean survival time, dose: 8.0 mg/kg/injection, schedule: Q01DX009 (ip), vehicle: saline",123 % of control
same,T/C,"endpoint: mean survival time, dose: 32.0 mg/kg/injection, schedule: Q01DX009 (ip), vehicle: saline",158 % of control
same,T/C,"endpoint: mean survival time, dose: 32.0 mg/kg/injection, schedule: Q04DX003 (ip), vehicle: saline",117 % of control
same,T/C,"endpoint: mean survival time, dose: 50.0 mg/kg/injection, schedule: Q01DX001 (ip), vehicle: saline",96 % of control
same,T/C,"endpoint: mean survival time, dose: 64.0 mg/kg/injection, schedule: Q01DX009 (ip), vehicle: saline",124 % of control
same,T/C,"endpoint: mean survival time, dose: 128.0 mg/kg/injection, schedule: Q01DX009 (ip), vehicle: saline",104 % of control
same,T/C,"endpoint: mean survival time, dose: 256.0 mg/kg/injection, schedule: Q04DX003 (ip), vehicle: saline",196 % of control
same,T/C,"endpoint: mean survival time, dose: 512.0 mg/kg/injection, schedule: Q04DX003 (ip), vehicle: saline",251 % of control
same,T/C,"endpoint: median survival time, dose: 180.0 mg/kg/injection, schedule: Q04DX003 (ip), vehicle: Klucel (hydroxypropylcellulose) (HPC)",169 % of control and 170 % of control
same,T/C,"endpoint: median survival time, dose: 300.0 mg/kg/injection, schedule: Q04DX003 (ip), vehicle: Klucel (hydroxypropylcellulose) (HPC)",236 % of control
same,T/C,"endpoint: median survival time, dose: 500.0 mg/kg/injection, schedule: Q04DX003 (ip), vehicle: Klucel (hydroxypropylcellulose) (HPC)",122 % of control
C[N+](C)=CN1c2ccccc2Sc2ccccc21,T/C,[4],97 % of control
same,T/C,[5],103 % of control
COC(=O)C=P(c1ccccc1)(c1ccccc1)c1ccccc1,T/C,"endpoint: mean survival time, dose: 6.25 mg/kg/injection, schedule: Q01DX009 (ip), vehicle: saline with Tween-80",97 % of control
same,T/C,"endpoint: mean survival time, dose: 6.25 mg/kg/injection, schedule: Q04DX003 (ip), vehicle: saline with Tween-80",98 % of control
same,T/C,"endpoint: mean survival time, dose: 12.5 mg/kg/injection, schedule: Q01DX009 (ip), vehicle: saline with Tween-80",103 % of control
same,T/C,"endpoint: mean survival time, dose: 12.5 mg/kg/injection, schedule: Q04DX003 (ip), vehicle: saline with Tween-80",101 % of control
same,T/C,"endpoint: mean survival time, dose: 25.0 mg/kg/injection, schedule: Q01DX009 (ip), vehicle: saline with Tween-80",97 % of control and 94 % of control
same,T/C,"endpoint: mean survival time, dose: 25.0 mg/kg/injection, schedule: Q04DX003 (ip), vehicle: saline with Tween-80",95 % of control
same,T/C,[7],95 % of control
same,T/C,[4],100 % of control
same,T/C,[1],97 % of control
CC(SCc1ccccc1)C(NC(=O)c1ccccc1)C(=O)O (configuration not stated),T/C,[4],93 % of control
same,T/C,[1],98 % of control
same,T/C,[5],90 % of control
same,T/C,[2],98 % of control
same,T/C,[6],93 % of control
same,T/C,[3],101 % of control
C=CCc1nc2c(N)ncnc2n1C1OC(CO)C(O)C1O (configuration not stated),T/C,"endpoint: median survival time, dose: 12.5 mg/kg/injection, schedule: Q01DX005 (ip), vehicle: water",105 % of control
same,T/C,"endpoint: median survival time, dose: 25.0 mg/kg/injection, schedule: Q01DX005 (ip), vehicle: water",104 % of control
same,T/C,"endpoint: median survival time, dose: 50.0 mg/kg/injection, schedule: Q01DX005 (ip), vehicle: water",102 % of control
same,T/C,"endpoint: median survival time, dose: 100.0 mg/kg/injection, schedule: Q01DX005 (ip), vehicle: water",102 % of control
same,T/C,"endpoint: median survival time, dose: 200.0 mg/kg/injection, schedule: Q01DX005 (ip), vehicle: water",104 % of control
COCC(O)CN1CCN(c2ccccc2C)CC1 (configuration not stated),T/C,[1],93 % of control
Nn1nc2ccccc2n1,T/C,[1],111 % of control
same,T/C,[2],117 % of control
same,T/C,[3],95 % of control
COC1c2cc3ccccc3nc2-c2ccccc2C1(C)C (configuration not stated),T/C,"endpoint: mean survival time, dose: 12.5 mg/kg/injection, schedule: Q01DX009 (ip), vehicle: water",96 % of control
same,T/C,[8],96 % of control
same,T/C,[9],91 % of control
same,T/C,[10],91 % of control
same,T/C,[11],90 % of control
CC(=O)Nc1cc(N)cc(-c2ccccc2)c1,T/C,"endpoint: mean survival time, dose: 50.0 mg/kg/injection, schedule: Q04DX002 (ip), vehicle: saline with Tween-80",96 % of control and 104 % of control
same,T/C,[1],94 % of control and 97 % of control
same,T/C,[2],90 % of control and 94 % of control
same,T/C,[3],94 % of control and 100 % of control
OCC(Cl)(Cl)Cl,T/C,[1],93 % of control
same,T/C,[2],97 % of control
same,T/C,[3],101 % of control
C/C(Cc1ccccc1)=N\O,T/C,[1],103 % of control
same,T/C,[2],100 % of control
same,T/C,[3],114 % of control
COc1ccc(CCl)cc1CCl,T/C,[1],102 % of control
same,T/C,[2],91 % of control
CC1(C)CC(O)(Cc2ccccc2)C(=O)c2ccccc21 (configuration not stated),T/C,[8],95 % of control
same,T/C,[9],92 % of control
same,T/C,[10],95 % of control
same,T/C,[11],95 % of control
same,T/C,"endpoint: mean survival time, dose: 400.0 mg/kg/injection, schedule: Q01DX009 (ip), vehicle: water",97 % of control
CN(Cc1ccc(C#N)cc1)N=Nc1ccc(C(=O)O)cc1,T/C,"endpoint: mean survival time, dose: 25.0 mg/kg/injection, schedule: Q01DX009 (ip), vehicle: other",106 % of control
same,T/C,"endpoint: mean survival time, dose: 50.0 mg/kg/injection, schedule: Q01DX009 (ip), vehicle: other",87 % of control
same,T/C,"endpoint: mean survival time, dose: 100.0 mg/kg/injection, schedule: Q01DX009 (ip), vehicle: other",106 % of control
same,T/C,"endpoint: mean survival time, dose: 200.0 mg/kg/injection, schedule: Q01DX009 (ip), vehicle: other",102 % of control
same,T/C,"endpoint: mean survival time, dose: 400.0 mg/kg/injection, schedule: Q01DX009 (ip), vehicle: other",120 % of control
